According to ChEMBL document CHEMBL1201862, “PubChem BioAssay data set” (2004):
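Following 48 hours of exposure in 96-well plates, responses at five concentrations were used to interpolate endpoints linearly. At the GI50, growth is halved.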 Calls of active or inactive are those of the source. Cut-off read from the data, not from the text of the source: active = GI50 up to about 1.1 µM and inactive = higher.

What was measured:
Test in all cases: NCI tumour cell line growth inhibition, 48 h
U-251 = tested on: U-251
Hs-578T = tested on: Hs-578T
NCI-H226 = tested on: NCI-H226
A498 = tested on: A498
M14 = tested on: M14
CCRF-CEM = tested on: CCRF-CEM
SK-MEL-5 = tested on: SK-MEL-5
OVCAR-3 = tested on: OVCAR-3
HCT-15 = tested on: HCT-15
A549 = tested on: A549
K562 = tested on: K562
COLO 205 = tested on: COLO 205
SK-MEL-28 = tested on: SK-MEL-28
HCT-116 = tested on: HCT-116
IGROV-1 = tested on: IGROV-1
UACC-62 = tested on: UACC-62
OVCAR-5 = tested on: OVCAR-5
786-0 = tested on: 786-0
RXF 393 = tested on: RXF 393
RPMI-8226 = tested on: RPMI-8226
KM12 = tested on: KM12
NCI-H23 = tested on: NCI-H23
SF-295 = tested on: SF-295
SN12C = tested on: SN12C
HCC 2998 = tested on: HCC 2998
LOX IMVI = tested on: LOX IMVI
SNB-19 = tested on: SNB-19
UACC-257 = tested on: UACC-257
PC-3 = tested on: PC-3
NCI-H460 = tested on: NCI-H460
MDA-MB-435 = tested on: MDA-MB-435
SF-268 = tested on: SF-268
MDA-N = tested on: MDA-N
SNB-75 = tested on: SNB-75
HOP-62 = tested on: HOP-62
SW-620 = tested on: SW-620
MCF7 = tested on: MCF7
ACHN = tested on: ACHN
SR = tested on: SR
MOLT-4 = tested on: MOLT-4
HOP-92 = tested on: HOP-92
OVCAR-4 = tested on: OVCAR-4
DU-145 = tested on: DU-145
TK-10 = tested on: TK-10
SF-539 = tested on: SF-539
NCI/ADR-RES = tested on: NCI/ADR-RES
SK-MEL-2 = tested on: SK-MEL-2
HL-60 = tested on: HL-60
UO-31 = tested on: UO-31
BT-549 = tested on: BT-549
SK-OV-3 = tested on: SK-OV-3
T47D = tested on: T47D
EKVX = tested on: EKVX
HT-29 = tested on: HT-29
OVCAR-8 = tested on: OVCAR-8

Brc1ccc(-c2ccc(-c3ccc(Br)s3)s2)s1
GI50 (U-251): > 100 µM (inactive) | GI50 (Hs-578T): > 100 µM (inactive) | GI50 (NCI-H226): > 100 µM (inactive) | GI50 (A498): > 100 µM (inactive) | GI50 (M14): > 100 µM (inactive) | GI50 (CCRF-CEM): > 100 µM (inactive) | GI50 (SK-MEL-5): > 100 µM (inactive) | GI50 (OVCAR-3): > 100 µM (inactive) | GI50 (HCT-15): > 100 µM | GI50 (A549): > 100 µM (inactive) | GI50 (K562): > 100 µM (inactive) | GI50 (COLO 205): > 100 µM (inactive) | GI50 (SK-MEL-28): > 100 µM (inactive) | GI50 (HCT-116): > 100 µM (inactive) | GI50 (IGROV-1): > 100 µM (inactive) | GI50 (UACC-62): > 100 µM (inactive) | GI50 (OVCAR-5): > 100 µM (inactive) | GI50 (786-0): > 100 µM (inactive) | GI50 (RXF 393): > 100 µM (inactive) | GI50 (RPMI-8226): > 100 µM (inactive) | GI50 (KM12): > 100 µM (inactive) | GI50 (NCI-H23): > 100 µM (inactive) | GI50 (SF-295): > 100 µM (inactive) | GI50 (SN12C): > 100 µM (inactive) | GI50 (HCC 2998): > 100 µM (inactive) | GI50 (LOX IMVI): > 100 µM (inactive) | GI50 (SNB-19): > 100 µM (inactive) | GI50 (UACC-257): > 100 µM (inactive) | GI50 (PC-3): > 100 µM (inactive) | GI50 (NCI-H460): > 100 µM (inactive) | GI50 (MDA-MB-435): > 100 µM (inactive) | GI50 (SF-268): > 100 µM (inactive) | GI50 (MDA-N): > 100 µM (inactive) | GI50 (SNB-75): > 100 µM (inactive) | GI50 (HOP-62): > 100 µM (inactive) | GI50 (SW-620): > 100 µM (inactive) | GI50 (MCF7): > 100 µM (inactive) | GI50 (ACHN): > 100 µM (inactive) | GI50 (SR): > 100 µM (inactive) | GI50 (MOLT-4): > 100 µM (inactive) | GI50 (HOP-92): > 100 µM (inactive) | GI50 (OVCAR-4): > 100 µM (inactive) | GI50 (DU-145): > 100 µM (inactive) | GI50 (TK-10): > 100 µM (inactive) | GI50 (SF-539): > 100 µM (inactive) | GI50 (NCI/ADR-RES): > 100 µM (inactive) | GI50 (SK-MEL-2): > 100 µM (inactive) | GI50 (HL-60): > 100 µM (inactive) | GI50 (UO-31): > 100 µM (inactive) | GI50 (BT-549): > 100 µM (inactive) | GI50 (SK-OV-3): > 100 µM (inactive) | GI50 (T47D): > 100 µM (inactive) | GI50 (EKVX): > 100 µM (inactive) | GI50 (HT-29): > 100 µM (inactive) | GI50 (OVCAR-8): > 100 µM (inactive)
